The nature of data set [1]: Bulk solution stability of Example 3C at 25° C. Type of data set: physicochemical. Here is the method: All three solutions were filtered and 5 ml each placed in a Type I flint vials and lyophilized. […] The lyophilized cakes in all vials were shrunken and collapsed. […] Since lyophilization of the ASA-lysine solution was carried out at about −30° C., all water was removed by sublimation at this low temperature. It is not known whether degradation took place during the lyophilization or during the preparation of the bulk solution or combination of both. Therefore, we have investigated the bulk solution stability of example 3C at 25° C.

A short description of data set [2]: pH and appearance of bulk and reconstituted solutions of ASA co-lyophilized with bases in TBA/water. Format: physicochemical. Conditions: 20 mg/ml aspirin in 80% TBA/20 water. An excerpt:
The pH of the solution was raised to 6.5 using 1N sodium hydroxide. Phase separation was observed, probably due to salting out of inorganic base from TBA/Water system. In the next trial, we first raised the pH of the solution to 5.0 using 1N sodium hydroxide, and then sodium phosphate, dibasic to raise the pH to 6.5. Sodium phosphate, dibasic was used for a better control of pH. Since we still observed phase separation it appears that inorganic bases or buffers may not be compatible with a 80% TBA/20% water system. We may require more water, for example, 70% TBA/30% water in the system to dissolve the alkalinizing agents.
The reconstituted solution pH was 4.71.
In the next trial, we investigated incorporation of […] to facilitate complete neutralization. […] Arginine was, then, slowly added to the slurry to neutralize aspirin. […] The apparent pH of the bulk solution was 6.49. 5 ml aliquots placed in flint vials and lyophilized. Upon completion of lyophilization, the content of vial was reconstituted with 5 ml of Water for Injection. […] The reconstituted solution pH was 4.8.
Based on the above studies, it was evident that larger amount of base is needed to neutralize ASA in the preferred solvent system. To incorporate more base in the bulk solution, we explored use of 60/40 TBA/water system as solvent for lyophilization. […] The apparent pH of the bulk solution was 6.31. […]

Data set [3] is described as follows: Reconstitution of ASA lyophile with various basifying agents. Format: physicochemical. Conditions: basifying agent diluents of examples 13 and 14, without polysorbate 80. Here is the method: One aspect of this invention was to produce a stable lyophilized product and a solvent system with sufficient bulk solution stability to withstand an aseptic processing and lyophilization process. The lyophilized products we have manufactured in most of these studies were made with 80% TBA/20% to 60% TBA/40% water solvent system and the bulk solution for lyophilization stable for 24 hours with minimal degradation. We have achieved this goal. […] The reconstitution studies were done by reconstituting a 100 mg vial with 5 ml of solution containing a buffer or a basifying agent or a combination of both.

Data set [4] is described as follows: Tonicity and pH of reconstituted solutions of ASA. Type of data set: physicochemical. From the text: Since the aspirin product will be administered via an IV bolus route, tonicity of the final reconstituted solution is acritical factor to avoid pain at the injection site.
The conditions of data set [5]: cited from earlier work.
Another data set has as its system platelet aggregation. The settings on record: following oral dosing; cited from earlier work.
For data set [6] the following is noted: oral tablets; cited from earlier work.
The conditions of data set [7]: intravenous vs oral; cited from earlier work.
For a further data set, the system named is Thromboxane B2. Conditions: in 5 minutes of post bolus injection; 5 ml of 100 mg/ml ASA injected in less than 2 minutes; cited from earlier work.
A short description of the next data set: physchem. On the procedure:
The batch volume was made up to 100 ml with addition of 70/30 TBA/water. […] 5 ml aliquots were placed in flint vials and lyophilized. Upon completion of lyophilization, the contents of the vial were reconstituted with 5 ml of Water for Injection.

In brackets after ≈: the same amount, converted by molar mass.

For o-acetylsalicylic acid [Aspirin], the “Area % of Salicylic Acid” value is listed as “about 9 Area %” in data set [1] (4 hours) and “about 3 Area %” in data set [1] (Initial). In addition, the “apparent pH of the bulk solution” value in data set [2] was found to be 2.9. Moreover, in [3], the “appearance of reconstituted solution” value is recorded as “did not show any haziness”. Besides, the “Osmolality (m.Osm/Kg)” value in data set [4] (12 mg/mL Na2HPO4 and 27 mg/mL of Tris buffer with 0.05% Tween80, 10 mL, ASA 50 mg/mL) was found to be 717 m.Osm/Kg; in data set [4] (17.5 mg/mL Tris Buffer with 0.05% Tween80, 20 mL, ASA 25 mg/mL) it was 269 m.Osm/Kg; in data set [4] (20 mg/mL Na2HPO4 with 0.05% Tween80, 25 mL, ASA 20 mg/mL), 481 m.Osm/Kg; in data set [4] (30 mg/mL of lysine and 7.5 mg/mL of Tris buffer, 20 mL, ASA 25 mg/mL) it was 338 m.Osm/Kg; in data set [4] (34 mg/mL Tris Buffer with 0.05% Tween80, 10 mL, ASA 50 mg/mL), 549 m.Osm/Kg; in [4] (34 mg/mL Tris Buffer, 10 mL, ASA 50 mg/mL), 540 m.Osm/Kg. Also, the “Osmolality (m.Osm/Kg)” value in [4] (40 mg/mL L-Lysine, 20 mL, ASA 25 mg/mL) is recorded as 380 m.Osm/Kg; in data set [4] (40 mg/mL of L-Lysine with 0.05% Tween80, 20 mL, ASA 25 mg/mL), 388 m.Osm/Kg; in data set [4] (50 mg/mL Na2HPO4 with 0.05% Tween80, 10 mL, ASA 50 mg/mL), 1172 m.Osm/Kg; in data set [4] (68 mg/mL Tris Buffer with 0.05% Tween80, 10 mL, ASA 100 mg/mL), 1060 m.Osm/Kg; in [4] (68 mg/mL Tris Buffer with 0.05% Tween80, Aspirin API 1 g, 10 mL, ASA 100 mg/mL) it was 1036 m.Osm/Kg. Moreover, the “pH of the solution” value in data set [5] (aqueous aspirin solution) was “about 2.5”. Also, in data set [5] (concentrated aqueous bulk solution), the “time to 10% of potency loss” value is listed as “about 1.3 hours”. The degradation rate entry in [5] (pH 2.5) is given as “about 2 % per day”. Besides, the “onset of inhibition of platelet aggregation” value in the data set on platelet aggregation is listed as “approximately 40 minutes”. Moreover, the “initial onset of pain relief” value in data set [6] was “about 30 minutes”. For the same compound, the “effectiveness of intravenously administered solution versus orally administered equal amount” value in [7] is listed as “four times as high”.
With `CC(=O)Oc1ccccc1C(=O)O.NCCCCC(N)C(=O)O` [aspirin lysine salt], the shelf life result in data set [5] (Bayer sterile dry powder product) is reported as “one year”. Moreover, the “Thromboxane B2 inhibited” value in the data set with Thromboxane B2 is recorded as “greater than 95%”.
Consider `NCCCC[C@H](N)C(=O)O` [lysine], for which the solubility (commonly the concentration that dissolves in the medium under given conditions) in the data set “physchem” (organic solvent or mixture) was 2000 µg/mL (≈ 13.7 mM).
In turn, tris(hydroxymethyl)aminomethane came in with a solubility in the data set “physchem” (70/30 TBA/water, neat free base without ASA) of 5000 µg/mL.
